# Measurements: patent US7179819B2, “VLA-4 inhibitor compounds” (Daiichi Pharmaceutical Co., Ltd., priority 1999, dated 2007)
row,Compound,melting point
1,"O=C(Nc1ccccc1)Nc1ccc(CC(=O)N2C[C@@H](F)C[C@H]2COc2ccc(C(=O)O)cc2)cc1 [Compound 72, 4-[(4S)-fluoro-1-[4-(N′-phenylureido)phenylacetyl]-(2S)-pyrrolidinylmethoxy]benzoic acid]",169 to 171 °C
2,"Cc1cc(CC(=O)N2C[C@@H](F)C[C@H]2COc2ccc(C(=O)O)cc2)ccc1NC(=O)Nc1ccccc1 [Compound 73, 4-[(4S)-fluoro-1-[3-methyl-4-(N′-phenylureido)phenylacetyl]-(2S)-pyrrolidinylmethoxy]benzoic acid]",130 to 135 °C
3,"Cc1cc(CC(=O)N2C[C@@H](F)C[C@H]2COc2ccc(C(=O)O)cc2)ccc1NC(=O)Nc1ccccc1F [Compound 74, 4-[(4S)-fluoro-1-[4-[N′-(2-fluorophenyl)ureido]-3-methylphenylacetyl]-(2S)-pyrrolidinylmethoxy]benzoic acid]",137 to 143 °C
4,"O=C(Nc1ccc(CC(=O)N2C[C@@H](F)C[C@H]2COc2ccc(C(=O)O)cc2)cc1)Nc1ccccc1C(F)(F)F [Compound 75, 4-[(4S)-fluoro-1-[4-[N′-(2-trifluoromethylphenyl)ureido]phenylacetyl]-(2S)-pyrrolidinylmethoxy]benzoic acid]",130 to 135 °C
5,"Cc1cc(CC(=O)N2C[C@@H](F)C[C@H]2COc2ccc(C(=O)O)cc2)ccc1NC(=O)Nc1ccccc1C(F)(F)F [Compound 77, 4-[(4S)-fluoro-1-[3-methyl-4-[N′-(2-trifluoromethylphenyl)ureido]phenylacetyl]-(2S)-pyrrolidinylmethoxy]benzoic acid]",123 to 126 °C
6,"Cc1cc(CC(=O)N2CCC[C@H]2COc2ccc(C(=O)O)cc2)ccc1NC(=O)Nc1ccccc1Cl [Compound 81, 4-[1-[4-[N′-(2-chlorophenyl)ureido]-3-methylphenylacetyl]-(2S)-pyrrolidinyl]methoxybenzoic acid]",122 to 124 °C
7,"Cc1cc(CC(=O)N2CCC[C@H]2COc2ccc(C(=O)O)cc2)ccc1NC(=O)Nc1ccccc1Br [Compound 82, 4-[1-[4-[N′-(2-bromophenyl)ureido]-3-methylphenylacetyl]-(2S)-pyrrolidinyl]methoxybenzoic acid]",125 to 130 °C
8,"Cc1ccccc1NC(=O)Nc1ccc(CC(=O)N2CCC[C@H]2COc2ccc(C(=O)O)cc2)cc1C [Compound 83, 4-[1-[3-methyl-4-[N′-(2-methylphenyl)ureido]phenylacetyl]-(2S)-pyrrolidinylmethoxy]benzoic acid]",191 to 193 °C
9,"O=C(Nc1ccc(CC(=O)N2C[C@@H](F)C[C@H]2COc2ccc(C(=O)O)cc2)cc1)Nc1c(Cl)cccc1Cl [Compound 87, 4-[1-[4-[N′-(2,6-dichlorophenyl)ureido]phenylacetyl]-(4S)-fluoro-(2S)-pyrrolidinyl]methoxy benzoic acid]",168 to 172 °C (dec.)
10,"COc1cc(CC(=O)N2C[C@@H](F)C[C@H]2COc2ccc(C(=O)O)cc2)ccc1NC(=O)Nc1c(Cl)cccc1Cl [Compound 88, 4-[1-[4-[N′-(2,6-dichlorophenyl)ureido]-3-methoxyphenylacetyl]-(4S)-fluoro-(2S)-pyrrolindinyl]methoxybenzoic acid]",162 to 168 °C (dec.)
11,COc1cc(CC(=O)N2C[C@@H](O)C[C@H]2COc2ccc(C(=O)O)cc2)ccc1NC(=O)Nc1ccccc1Br [Compound 108],143 to 151 °C (dec.)
12,"Cc1ccccc1NC(=O)Nc1ccc(CC(=O)N2C[C@@H](Oc3ccc(C(=O)O)cc3)C[C@H]2COc2ccc(C(=O)O)cc2)cc1 [Compound 119, 4-[(4S)-(4-carboxyphenoxy)-1-[4-[N′-(2-methylphenyl)uriedo]phenylacetyl]-(2S)-pyrrolidinylmethoxy]benzoic acid]",157 to 160 °C

# Next, values leading:
row,melting point,Compound
1,129 to 132 °C,"COc1cc(CC(=O)N2C[C@@H](F)C[C@H]2COc2ccc(C(=O)O)cc2)ccc1NC(=O)Nc1ccccc1C(F)(F)F [Compound 76, 4-[(4S)-fluoro-1-[3-methoxy-4-[N′-(2-trifluoromethylphenyl)ureido]phenylacetyl]-(2S)-pyrrolidinylmethoxy]benzoic acid]"
2,127 to 132 °C,"COc1cc(CC(=O)N2C[C@@H](Cl)C[C@H]2COc2ccc(C(=O)O)cc2)ccc1NC(=O)Nc1ccccc1Br [Compound 103, 4-[1-[4-[N′-(2-bromophenyl)ureido]-3-methoxyphenylacetyl]-(4S)-chloro-(2S)-pyrrolidinyl]methoxybenzoic acid]"
3,148 to 152 °C (dec.),COc1cc(CC(=O)N2C[C@@H](O)C[C@H]2COc2ccc(C(=O)O)cc2)ccc1NC(=O)Nc1ccccc1C [Compound 106]
4,138 to 142 °C (dec.),"COc1cc(CC(=O)N2C[C@@H](O)C[C@H]2COc2ccc(C(=O)O)cc2)ccc1NC(=O)Nc1ccccc1Cl [Compound 107, 4-[1-[4-[N′-(2-chlorophenyl)ureido]-3-methoxyphenylacetyl]-(4S)-hydroxy-(2S)-pyrrolidinyl]methoxybenzoic acid]"
5,137 to 142 °C,COc1cc(CC(=O)N2C[C@H](O)C[C@H]2COc2ccc(C(=O)O)cc2)ccc1NC(=O)Nc1ccccc1Cl [Compound 109]
6,178 to 182 °C,"COc1cc(CC(=O)N2C[C@H](O)C[C@H]2COc2ccc(C(=O)O)cc2)ccc1NC(=O)Nc1ccccc1C [Compound 110, 4-[(4R)-hydroxy-1-[3-methoxy-4-[N′-(2-methylphenyl)ureido]phenylacetyl]-(2S)-pyrrolidinylmethoxy]benzoic acid]"
7,154 to 159 °C,"COc1cc(CC(=O)N2C[C@@H](Oc3ccc(C(=O)O)cc3)C[C@H]2COc2ccc(C(=O)O)cc2)ccc1NC(=O)Nc1ccccc1C [Compound 116, 4-[(4S)-(4-carboxyphenoxy)-1-[3-methoxy-4-[N′-(2-methylphenyl)uriedo]phenylacetyl]-(2S)-pyrrolidinylmethoxy]benzoic acid]"
8,150 to 153 °C,"COc1cc(CC(=O)N2C[C@@H](Oc3ccc(C(=O)O)cc3)C[C@H]2COc2ccc(C(=O)O)cc2)ccc1NC(=O)Nc1ccccc1Cl [Compound 117, 4-[(4S)-(4-carboxyphenoxy)-1-[4-[N′-(2-chlorophenyl)uriedo]-3-methoxyphenylacetyl]-(2S)-pyrrolidinylmethoxy]benzoic acid]"
9,129 to 133 °C,COc1cc(CC(=O)N2C[C@@H](Oc3ccc4ncccc4c3)C[C@H]2COc2ccc(C(=O)O)cc2)ccc1NC(=O)Nc1ccccc1Cl [Compound 121]
10,149 to 153 °C,COc1cc(CC(=O)N2C[C@@H](Oc3ccc4ncccc4c3)C[C@H]2COc2ccc(C(=O)O)cc2)ccc1NC(=O)Nc1ccccc1Br [Compound 122]
11,112 to 115 °C,"COc1cc(CC(=O)N2C[C@H](OC)C[C@H]2COc2ccc(C(=O)O)cc2)ccc1NC(=O)Nc1ccccc1C [Compound 135, 4-[(4R)-methoxy-1-[3-methoxy-4-[N′-(2-methylphenyl)ureido]phenylacetyl]-(2S)-pyrrolidinylmethoxy]benzoic acid]"
12,111 to 116 °C,"COc1cc(CC(=O)N2C[C@H](OC)C[C@H]2COc2ccc(C(=O)O)cc2)ccc1NC(=O)Nc1ccccc1F [Compound 136, 4-[1-[4-[N′-(2-fluorophenyl)ureido]-3-methoxyphenylacetyl]-(4R)-methoxy-(2S)-pyrrolidinylmethoxy]benzoic acid]"
